Laboratory results as given in publication PMC8326471, “Synthesis and biological evaluation of new pyrazolebenzene-sulphonamides as potential anticancer agents and hCA I and II inhibitors” (Turkish Journal of Chemistry, 2021).

Key:
[1] = Cytotoxicity assay, all non-tumor cells (mean); format: cell-based; details: human, normal oral cells HGF, HPLF and HPC (mean of the three), read-out: Non-tumor cell lines CC50 mean (D)
Experimental: (§1) The cytotoxicity of the compounds 4a - 4j were assayed towards human tumor cell lines [gingival carcinoma (Ca9–22), oral squamous cell carcinoma (HSC-2)] and human normal oral cells [gingival fibroblasts (HGF), and periodontal ligament fibroblasts (HPLF)] as described [42, 54 – 56]. In brief, all cells were cultured in Dulbecco’s modified eagle’s medium (DMEM) supplemented with 10% fetal bovine serum (FBS). The following concentrations of the compounds in dimethylsulfoxide (DMSO) were added to the medium and incubated at 37 ° C for 48 h: 4a - 4j ([…]), melphalan (3.12, 6.25, 12.5, 25. 50, 100, 200 and […]) and 5-FU ([…]). The media that contained the same concentration of DMSO ([…], 0.03125, 0.0625, 0.125, 0.25, 0.5 or 1%) were used as controls since DMSO above 0.25% is cytotoxic. The viable cell numbers were determined by the 3-(4,5-dimethylthiazol-2-yl)-2,5-diphenyltetrazolium bromide (MTT) assay. The CC50 values were determined from dose-response curves.
(§2) Cytotoxicity’s of the compounds 4a - 4j were evaluated towards Ca9–22, HSC-2, HSC-3, and HSC-4 human oral squamous cell carcinoma cell lines as tumor cell lines and HGF, HPLF, and HPC human normal oral cells as nontumor cells (Table 1) according to the procedure in the literature [42, 54 – 56]. 5-Fluorouracil (5-FU) was used as a reference anticancer drug.

[2] = test system: HSC-4 oral squamous cell carcinoma cells; assay: Cytotoxicity assay (MTT), HSC-4; format: cell-based; details: Homo sapiens, tumor cell line, 48 h
Experimental: as §1, §2

[3] = test system: gingival carcinoma (Ca9-22) cells; assay: Cytotoxicity assay (MTT), Ca9-22; format: cell-based, human; details: for CC50: Homo sapiens, Ca9-22, tumor cell line, 48 h, MTT; for times of potency compared to 5-FU, Ca9-22: cytotoxicity relative to 5-FU; for PSE2 times more potent than 5-FU: PSE2 relative to reference drug 5-FU
Experimental: as §1, §2

[4] = test system: oral squamous cell carcinoma (HSC-2) cells; assay: Cytotoxicity assay (MTT), HSC-2; format: cell-based, human; details: for CC50: Homo sapiens, HSC-2, tumor cell line, 48 h, MTT; for times of potency compared to 5-FU, HSC-2: cytotoxicity relative to 5-FU
Experimental: as §1, §2

[5] = Cytotoxicity assay (MTT), HGF normal cells; format: cell-based; details: human, HGF gingival fibroblasts (normal oral cells), non-tumor cells
Experimental: as §1, §2

[6] = Cytotoxicity assay (MTT), HPC normal cells; format: cell-based; details: human, HPC normal oral cells, non-tumor cells
Experimental: as §1, §2

[7] = test system: HSC-3 oral squamous cell carcinoma cells; assay: Cytotoxicity assay (MTT), HSC-3; format: cell-based; details: Homo sapiens, tumor cell line, 48 h
Experimental: as §1, §2

[8] = test system: human oral squamous cell carcinoma cell lines (Ca9-22, HSC-2, HSC-3, HSC-4); assay: Cytotoxicity assay, all tumor cell lines (mean, TS1, PSE1); format: cell-based; details: mean of Ca9-22, HSC-2, HSC-3, HSC-4, read-out: Tumor cell lines CC50 mean (B)
Experimental: as §1, §2
The tumor selectivity (TS1 and TS2) of each compound was calculated as described in previously reported literature procedures and these figures are presented in Table 1. Based on the TS1 values, 4f and 4g which have 2,5 and 2,4-dimethoxy substituents had the highest TS1 values in a series with 22.4 and 22.2, respectively. On the other hand, the 3,4,5-trimethoxy substituted compound 4i (TS1: 19.6) had the […] TS1 value. […] As expected, they were in accordance with the literature findings [16 – 18]. The second calculation (TS2) considered the differences of sensitivity between the malignant (Ca9–22) and non-malignant (HGF) cells derived from the same tissue (gingiva). According to TS2 values obtained, 4i (3,4,5-trimethoxy) had the highest TS2 value of 43.
The desired properties for a lead compound are being both markedly cytotoxic and selectively toxic for tumors. PSE1 reflects general cytotoxicity and selectivity potency of the compound towards all cells used, whereas PSE2 seems more specified since it was considered for the same origin cells. When the compounds tested towards OSCC lines were considered in terms of PSE2 values of the compounds. The best poly-methoxylated compounds were 4i (with 3,4,5-trimethoxy, PSE2 = 461.5) ˃ 4f (with 2,5-dimethoxy, PSE2 = 425.1) ˃ 4g (with 2,4-dimethoxy, PSE2 = 405.4) while the best mono-methoxylated derivative was 4b (with 4-methoxy, PSE2 = 205).

[9] = Cytotoxicity assay (MTT), HPLF normal cells; format: cell-based; details: human, HPLF periodontal ligament fibroblasts (normal oral cells), non-tumor cells
Experimental: as §1, §2

hCA I = hCA I (Homo sapiens, UniProt P00915); assay: Carbonic anhydrase enzyme assay (esterase activity), hCA I; format: biochemical; details: for Ki: Lineweaver-Burk plot; for IC50: esterase activity, p-nitrophenyl acetate
Chain of hCA I (P00915 whole entry, canonical isoform): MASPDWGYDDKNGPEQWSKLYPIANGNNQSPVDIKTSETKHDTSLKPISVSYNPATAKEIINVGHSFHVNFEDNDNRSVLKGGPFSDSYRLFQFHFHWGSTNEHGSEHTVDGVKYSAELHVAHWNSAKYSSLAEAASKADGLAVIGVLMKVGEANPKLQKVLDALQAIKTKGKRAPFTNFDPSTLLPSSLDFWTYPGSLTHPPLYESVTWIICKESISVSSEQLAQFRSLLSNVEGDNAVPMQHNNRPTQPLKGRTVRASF
Excerpt: (§3) Human CA isoforms (hCAI and hCAII) were purified by the sepharose - 4B – L - tyrosine sulfanilamide affinity segregation method as reported. […] Inhibitory effects of the compounds were investigated by measuring the esterase activity according to Verpoorte et al. as described in previous studies [61 – 63].
(§4) Vmax, maximal velocity; VImax, maximal velocity of inhibitor; I, inhibitor; Ki, the inhibitor constant.

hCA II = hCA II (Homo sapiens, UniProt P00918); assay: Carbonic anhydrase enzyme assay (esterase activity), hCA II; format: biochemical; details: for Ki: Lineweaver-Burk plot; for IC50: esterase activity, p-nitrophenyl acetate
Excerpt: as §3, §4

| SMILES | Ki (hCA I) | IC50 (hCA I) | Ki (hCA II) | IC50 (hCA II) | melting point | CC50 at 48 h [1] | CC50 [2] | CC50 [3] | CC50 [4] | CC50 at 48 h [5] | CC50 at 48 h [6] | CC50 [7] | CC50 [8] | CC50 at 48 h [9] | times of potency compared to 5-FU, Ca9-22 [3] | times of potency compared to 5-FU, HSC-2 [4] | PSE2 times more potent than 5-FU [3] |
| --- | --- | --- | --- | --- | --- | --- | --- | --- | --- | --- | --- | --- | --- | --- | --- | --- | --- |
| O=c1[nH]cc(F)c(=O)[nH]1 [5-FU, 5-Fluorouracil, reference compound] | – | – | – | – | – | 986 µM | 12.5 µM | 22 µM | 261 µM | 1000 µM | 958 µM | 7.8 µM | 75.8 µM | 1000 µM | – | – | – |
| NS(=O)(=O)c1ccc(N2N=C(c3ccccc3)CC2c2ccc3c(c2)OCO3)cc1 (centres unmarked) [4a, 4-[5-(1,3-Benzodioxol-5-yl)-3-phenyl-4,5-dihydro-1H-pyrazol-1 yl]benzenesulphonamide] | 59.8 ± 3 µM | 30.1 µM | 8.9 ± 2.3 µM | 10.7 µM | 196 to 198 °C | 52.4 µM | 26.1 µM | 17.1 µM | 26.1 µM | 56.3 µM | 63.2 µM | 20.8 µM | 22.5 µM | 37.6 µM | 1.3 | 10 | – |
| COc1cccc(C2=NN(c3ccc(S(N)(=O)=O)cc3)C(c3ccc4c(c3)OCO4)C2)c1 (centres unmarked) [4c, 4-[5-(1,3-Benzodioxol-5-yl)-3-(3-methoxyphenyl)-4,5-dihydro-1H-pyrazol-1-yl]benzenesulphonamide] | 21.5 ± 1.5 µM | 6.6 µM | 6.9 ± 1.5 µM | 9.2 µM | 184 to 186 °C | 119 µM | 18 µM | 19.5 µM | 18.3 µM | 38.2 µM | 140 µM | 13.9 µM | 17.4 µM | 178 µM | – | 14.3 | – |
| COc1ccc(C2=NN(c3ccc(S(N)(=O)=O)cc3)C(c3ccc4c(c3)OCO4)C2)cc1OC (centres unmarked) [4e, 4-[5-(1,3-Benzodioxol-5-yl)-3-(3,4-dimethoxyphenyl)-4,5-dihydro-1H-pyrazol-1-yl]benzenesulphonamide] | 25.5 ± 1.6 µM | 10.2 µM | 9.3 ± 0.6 µM | 15.2 µM | 243 to 245 °C | 400 µM | 400 µM | – | 400 µM | 400 µM | 400 µM | 61 µM | 227 µM | 400 µM | – | – | – |
| COc1ccccc1C1=NN(c2ccc(S(N)(=O)=O)cc2)C(c2ccc3c(c2)OCO3)C1 (centres unmarked) [4d, 4-[5-(1,3-Benzodioxol-5-yl)-3-(2-methoxyphenyl)-4,5-dihydro-1H-pyrazol-1-yl]benzenesulphonamide] | 28.5 ± 1.6 µM | 12.8 µM | 8.9 ± 1.9 µM | 10.7 µM | 183 to 185 °C | 37.8 µM | 14.9 µM | 13.8 µM | 17.1 µM | 36.9 µM | 37 µM | 12.4 µM | 14.6 µM | 39.7 µM | 1.6 | 15.3 | – |
| COc1ccc(C2=NN(c3ccc(S(N)(=O)=O)cc3)C(c3ccc4c(c3)OCO4)C2)cc1 (centres unmarked) [4b, 4-[5-(1,3-Benzodioxol-5-yl)-3-(4-methoxyphenyl)-4,5-dihydro-1H-pyrazol-1-yl]benzenesulphonamide] | 31.9 ± 1.9 µM | 11.3 µM | 11.5 ± 4.6 µM | 16.3 µM | 171 to 173 °C | 300 µM | 18.2 µM | 14 µM | 18 µM | 400 µM | 98.7 µM | 16.2 µM | 16.6 µM | 400 µM | 1.6 | 14.5 | – |

Second part, led by results:

| Ki (hCA I) | IC50 (hCA I) | Ki (hCA II) | IC50 (hCA II) | melting point | SMILES | CC50 at 48 h [1] | CC50 [2] | CC50 [3] | CC50 [4] | CC50 at 48 h [5] | CC50 at 48 h [6] | CC50 [7] | CC50 [8] | CC50 at 48 h [9] | times of potency compared to 5-FU, Ca9-22 [3] | times of potency compared to 5-FU, HSC-2 [4] | PSE2 times more potent than 5-FU [3] |
| --- | --- | --- | --- | --- | --- | --- | --- | --- | --- | --- | --- | --- | --- | --- | --- | --- | --- |
| 52.5 ± 1.8 µM | 29.7 µM | 24.1 ± 7.1 µM | 12.5 µM | 212 to 214 °C | COc1cc(C2=NN(c3ccc(S(N)(=O)=O)cc3)C(c3ccc4c(c3)OCO4)C2)cc(OC)c1OC (centres unmarked) [4i, 4-[5-(1,3-Benzodioxol-5-yl)-3-(3,4,5-trimethoxyphenyl)-4,5-dihydro-1H-pyrazol-1-yl]benzenesulphonamide] | 285 µM | 6.7 µM | 9.3 µM | 30.9 µM | 400 µM | 371 µM | 11.3 µM | 14.6 µM | 83.7 µM | 2.4 | 8.4 | 2.2 |
| 27.8 ± 10.1 µM | 14 µM | 12.3 ± 2.8 µM | 16.3 µM | 144 to 146 °C | COc1ccc(OC)c(C2=NN(c3ccc(S(N)(=O)=O)cc3)C(c3ccc4c(c3)OCO4)C2)c1 (centres unmarked) [4f, 4-[5-(1,3-Benzodioxol-5-yl)-3-(2,5-dimethoxyphenyl)-4,5-dihydro-1H-pyrazol-1-yl]benzenesulphonamide] | 274 µM | 12 µM | 9.7 µM | 15.7 µM | 400 µM | 147 µM | 11.5 µM | 12.2 µM | 276 µM | 2.3 | 16.6 | 2.1 |
| 49.6 ± 1.9 µM | 13.8 µM | 9.3 ± 1.6 µM | 14.3 µM | 191 to 193 °C | COc1cc(OC)c(C2=NN(c3ccc(S(N)(=O)=O)cc3)C(c3ccc4c(c3)OCO4)C2)cc1OC (centres unmarked) [4h, 4-[5-(1,3-Benzodioxol-5-yl)-3-(2,4,5-trimethoxyphenyl)-4,5-dihydro-1H-pyrazol-1-yl]benzenesulphonamide] | 400 µM | 21.8 µM | 400 µM | 400 µM | 400 µM | 400 µM | 21.3 µM | 211 µM | 400 µM | – | – | – |
| 29.8 ± 9.4 µM | 17.9 µM | 9.3 ± 1.9 µM | 20 µM | 161 to 163 °C | COc1cc(C2=NN(c3ccc(S(N)(=O)=O)cc3)C(c3ccc4c(c3)OCO4)C2)ccc1O (centres unmarked) [4j, 4-[5-(1,3-Benzodioxol-5-yl)-3-(4-hydroxy-3-methoxyphenyl)-4,5-dihydro-1H-pyrazol-1-yl]benzenesulphonamide] | 65.2 µM | 16.8 µM | 17 µM | 26.7 µM | 76.7 µM | 54.3 µM | 26.3 µM | 21.7 µM | 64.7 µM | 1.3 | 9.8 | – |
